From patent EP1650209A1, “Griseusin derivatives and their use as antitumor agents” (Oncotest GmbH, priority 2004, dated 2006)
≈ marks a conversion by molar mass, not a printed value.

Columns and labels:
Assay in all cases: Clonogenic assay, colony formation of tumor stem cells from xenografts
Format in all cases: cell-based, human
LXFA 526 = settings: Lung, non small cell, xenograft LXFA 526, colony formation
Protocol: (§1) Using various human cancer xenografts in vitro, the concentrations of compound B which inhibit formation of tumor colonies of tumor stem cells by 50% (IC50) and 70% (IC70) are determined in a clonogenic assay. Specifically, each solid tumor of bladder cancer (BXF 1036 and BXF 1299), cervical cancer (CEXF 633 and CEXF 773), colic cancer (CXF 1103, CXF 158, CXF 1729, CXF 264 and CXF 280), gastric cancer (GXF 251 and GXF 97), head and neck cancer (HNXF 536), liver cancer (LIXF 575), non small cell lung cancer comprising adeno, squamous epithelium and large cell carcinoma (LXFA 1012, LXFA 289, LXFA 297, LXFA 526, LXFA 592, LXFA 629, LXFA 677, LXFE 409, LXFL 1072, LXFL 430LX and LXFL 529), small cell lung cancer (LXFS 650), mammary cancer (MAXF 1162, MAXF 1384, MAXF 401, MAXF 449, MAXF 574, MAXF 583, MAXF 713 and MAXF 857), melanoma (MEXF 1341, MEXF 462, MEXF 535 and MEXF 989), ovary cancer (OVXF 899), pancreatic cancer (PAXF 546 and PAXF 736), prostate cancer (DU-145 and PC3M), pleuramesothelioma (PXF 1752), renal cancer (RXF 1220, RXF 1393, RXF 393, RXF 631 and RXF 944LX), and sarcoma (SXF 1301 and SXF 463) engrafted on RPMI nu/nu thymus aplastic nude mice were explanted, disaggregated by mincing and enzymatic digestion for 50 minutes using 125 U/mL DNAse I, 41 U/mL collagenase IV, 100 U/ml hyaluronidase III, and 1 U/mL dispase I, and passed through sieves of 200 µm and 50 µm mesh size and washed twice with sterile PBS-buffer to remove cell aggregated from single cells. The clonogenic assay was performed in a 24 multiwell format. Each of the resulting single cell suspensions was added at a density of 2·10^4 to 6·10^4 cells per well to 0.2 ml of Iscove's Modified Dulbecco's Medium (IMDM) containing 20% fetal calf serum and 0.01% gentamicin supplemented with 0.4% (w/v) agar, and plated onto a bottom layer consisting of the same culture medium containing 0.75% (w/v) agar. After 24 hours IMDM containing 20% fetal calf serum and 0.01 % gentamicin, together with a test compound, was added there to. Then, the plate was incubated at 37°C for 10 to 20 days in a humidified atmosphere of air containing 7.5% CO2. Within this period, in vitro tumor growth led to the formation of colonies with a diameter of > 50µm. Colony counts were performed with an automatic image analysis system (OMNICON 3600). 24 hours prior to evaluation, vital colonies were stained with a vital staining dye. Therefore, 100 µl of a sterile aqueous solution of 2-(4-iodophenyl)-3-(4-nitrophenyl)-5-phenyltetrazolium chloride (1 mg/ml) were added to each well of the plate, and plates were incubated for 24 hours at 37°C in a humidified atmosphere of air containing 7.5% CO2. Inhibition of colony formation was expressed as test versus untreated control (T/C-value [%]). IC50 and IC70 values were determined by plotting compound concentration versus cell viability. Table 3: Inhibition of Colony Formation of Tumor Stem Cells by griseusin derivative B

PC3M = settings: Prostate, xenograft PC3M
Protocol: as §1

MAXF 857 = settings: Breast, xenograft MAXF 857, colony formation
Protocol: as §1

LXFA 629 = settings: Lung, non small cell, xenograft LXFA 629, colony formation
Protocol: as §1

CXF 158 = settings: Colon, xenograft CXF 158, colony formation
Protocol: as §1

MEXF 1341 = settings: Melanoma, xenograft MEXF 1341, colony formation
Protocol: as §1

LXFA 1012 = settings: Lung, non small cell, xenograft LXFA 1012, colony formation
Protocol: as §1

PAXF 546 = settings: Pancreas, xenograft PAXF 546, colony formation
Protocol: as §1

RXF 393 = settings: Kidney, xenograft RXF 393, colony formation
Protocol: as §1

MAXF 1162 = settings: Breast, xenograft MAXF 1162, colony formation
Protocol: as §1

MEXF 462 = settings: Melanoma, xenograft MEXF 462, colony formation
Protocol: as §1

MAXF 574 = settings: Breast, xenograft MAXF 574, colony formation
Protocol: as §1

OVXF 899 = settings: Ovary, xenograft OVXF 899, colony formation
Protocol: as §1

MAXF 583 = settings: Breast, xenograft MAXF 583, colony formation
Protocol: as §1

CXF 1103 = settings: Colon, xenograft CXF 1103, colony formation
Protocol: as §1

MAXF 401 = settings: Breast, xenograft MAXF 401, colony formation
Protocol: as §1

LXFE 409 = settings: Lung, non small cell, xenograft LXFE 409, colony formation
Protocol: as §1

PXF 1752 = settings: Pleuramesothelio, xenograft PXF 1752, colony formation
Protocol: as §1

C[C@@H]1CC(=O)[C@@H](O)[C@]2(O1)O[C@@H]1CC(=O)O[C@@H]1C1=C2C(=O)c2c(O)cccc2C1=O [Compound B, 4'-dehydro-deacetylgriseusin A]
IC50 (LXFA 526): 0.300 µg/mL (≈ 0.749 µM)
IC70 (LXFA 526): 0.512 µg/mL (≈ 1.28 µM)
IC50 (PC3M): 0.419 µg/mL (≈ 1.05 µM)
IC70 (PC3M): 0.818 µg/mL (≈ 2.04 µM)
IC50 (MAXF 857): 1.449 µg/mL (≈ 3.62 µM)
IC70 (MAXF 857): 1.975 µg/mL (≈ 4.93 µM)
IC50 (LXFA 629): 0.808 µg/mL (≈ 2.02 µM)
IC70 (LXFA 629): 1.276 µg/mL (≈ 3.19 µM)
IC50 (CXF 158): 0.126 µg/mL (≈ 0.315 µM)
IC70 (CXF 158): 0.358 µg/mL (≈ 0.894 µM)
IC50 (MEXF 1341): 0.462 µg/mL (≈ 1.15 µM)
IC70 (MEXF 1341): 0.673 µg/mL (≈ 1.68 µM)
IC50 (LXFA 1012): 0.442 µg/mL (≈ 1.1 µM)
IC70 (LXFA 1012): 0.631 µg/mL (≈ 1.58 µM)
IC50 (PAXF 546): 0.168 µg/mL (≈ 0.42 µM)
IC70 (PAXF 546): 0.420 µg/mL (≈ 1.05 µM)
IC50 (RXF 393): 0.150 µg/mL (≈ 0.375 µM)
IC70 (RXF 393): 0.212 µg/mL (≈ 0.53 µM)
IC50 (MAXF 1162): 0.182 µg/mL (≈ 0.455 µM)
IC70 (MAXF 1162): 0.362 µg/mL (≈ 0.904 µM)
IC50 (MEXF 462): 1.666 µg/mL (≈ 4.16 µM)
IC70 (MEXF 462): 2.152 µg/mL (≈ 5.38 µM)
IC50 (MAXF 574): 0.335 µg/mL (≈ 0.837 µM)
IC70 (MAXF 574): 0.523 µg/mL (≈ 1.31 µM)
IC50 (OVXF 899): 0.468 µg/mL (≈ 1.17 µM)
IC70 (OVXF 899): 0.731 µg/mL (≈ 1.83 µM)
IC50 (MAXF 583): 0.078 µg/mL (≈ 0.195 µM)
IC70 (MAXF 583): 0.195 µg/mL (≈ 0.487 µM)
IC50 (CXF 1103): 0.173 µg/mL (≈ 0.432 µM)
IC70 (CXF 1103): 0.529 µg/mL (≈ 1.32 µM)
IC50 (MAXF 401): 0.478 µg/mL (≈ 1.19 µM)
IC70 (MAXF 401): 0.782 µg/mL (≈ 1.95 µM)
IC50 (LXFE 409): 1.732 µg/mL (≈ 4.33 µM)
IC70 (LXFE 409): 2.249 µg/mL (≈ 5.62 µM)
IC50 (PXF 1752): 0.811 µg/mL (≈ 2.03 µM)
IC70 (PXF 1752): 1.253 µg/mL (≈ 3.13 µM)
